The values below come from EP4806892A1, “CEREBLON E3 UBIQUITIN LIGASE INHIBITOR” (GAN & LEE PHARMACEUTICALS CO., LTD., priority 2023, dated 2025).

Molecules are shown by their SMILES.

One assay has as its target E3 ubiquitin ligase CRBN (Homo sapiens, UniProt Q96SW2). The experiment in a line: CRBN competitive binding assay (HTRF, thalidomide-XL665 displacement).
Conditions: not given
How it is done: CRBN binding activity test kit (CEREBLON BINDING KITS (PE, 64BD CRBN PEG)).
The detection is based on homogeneous time-resolved fluorescence (HTRF) technology.
This kit uses a europium-labeled GST antibody (GST Eu Cryptate Antibody) as the donor and XL665-labeled thalidomide (Thalidomide-Red reagent) as the receptor. The donor binds to the GST-tagged CRBN protein.
The donor and acceptor were each diluted 50-fold using the buffer (PROTAC binding buffer 1) in the kit. The CRBN protein was diluted 45-fold. The 8 mM compound solution disclosed in the present invention was diluted 10-fold using the diluent (1 X diluent) in the kit, and then the dilutd solution was subjected to 5-fold gradient dilution of the diluent, diluted 7 times sequentially. […] The mixture was incubated at room temperature for 3 hours. The ratio of the acceptor and donor emission signals for each individual well was calculated.
IC50 value was calculated based on compound concentration, Ratio, and coefficient of variation using GraphPad Prism.
Background: TR-FRET usually uses a lanthanide donor and a delayed reading to cut background.
One may read the IC50 as the concentration needed to halve the response being measured. In turn, `O=C1CCN(c2cc3c(cc2F)N2CCNC[C@@H]2CCO3)C(=O)N1` [Example B13] returned an IC50 of 4.45 µM.

The assay is the same for the next values; noted with them: competition with XL665-labeled thalidomide for GST-tagged CRBN protein, 3 hours at room temperature.
For the molecule `O=C1CCC(c2ccc3c(c2)OC2(CCNCC2)CC3)C(=O)N1` (stereo not drawn) [Example A4], the IC50 came to 0.55 µM.

The same assay, now with this note: competition with XL665-labeled thalidomide for GST-tagged CRBN protein, 3 hours at room temperature; read-out: IC50.
Regarding `O=c1ccn(-c2ccc3c(c2)OC2(CCNCC2)CC3)c(=O)[nH]1` [Example A1, 1-(spiro[chroman-2,4'-piperidin]-7-yl)pyrimidine-2,4(1H,3H)-dione], the concentration for half-maximal inhibition (IC50) came to 25.7 µM.
Still for that read-out and setting: next, `O=C1CCN(c2ccc3c(c2)OC2(CCNCC2)CC3)C(=O)N1` [Example A2, 1-(spiro[chroman-2,4'-piperidin]-7-yl)dihydropyrimidine-2,4(1H,3H)-dione]: 1.53 µM; `O=C1CCC2(CC1)CCc1ccc(N3CCC(=O)NC3=O)cc1O2` [Example A3, 1-(4'-oxospiro[chroman-2,1'-cyclohexan]-7-yl)dihydropyrimidine-2,4(1H,3H)-dione]: 0.59 µM.
On the same count and under the same terms, then `O=C1CCN(c2ccc3c(c2)OC2(CC3)CNC2)C(=O)N1` [Example A5, 1-(spiro[azetidine-3,2'-chroman]-7'-yl)dihydropyrimidine-2,4(1H,3H)-dione], with 3.06 µM.
Still for that read-out and setting: next, `O=C1CCN(c2ccc3c(c2)CCC2(CCNCC2)O3)C(=O)N1` [Example A6, 1-(spiro[chromate-2,4'-piperidin]-6-yl)dihydropyrimidine-2,4(1H,3H)-dione]: 7.47 µM; `O=C1CCN(c2ccc3c(c2)OCC2(CCNCC2)C3)C(=O)N1` [Example A7, 1-(spiro[benzopyran-3,4'-piperidin]-7-yl)dihydropyrimidine-2,4(1H,3H)-dione]: 12.7 µM; `O=C1CCN(c2ccc3c(c2)CC2(CCNCC2)CO3)C(=O)N1` [Example A8, 1-(spiro[benzopyran-3,4'-piperidin]-6-yl)dihydropyrimidine-2,4(1H,3H)-dione]: 9.5 µM.
Turning to `O=C1CCN(c2ccc3c(c2)OCC32CCNCC2)C(=O)N1` [Example A9, 1-(2H-spiro[benzofuran-3,4'-piperidin]-6-yl)dihydropyrimidine-2,4(1H,3H)-dione], the IC50 is 11.5 µM.
Same read-out and setting: then `CN1CC2(CCNCC2)Oc2cc(N3CCC(=O)NC3=O)ccc21` [Example A10, 1-(4-methyl-3,4-dihydrospiro[benzo[b][1,4]oxazine-2,4'-piperidin]-7-yl)dihydropyrimidine-2,4(1H,3H)-dione], with 0.91 µM; and `O=C1CCN(c2ccc3c(c2)OC2(CCNCC2)C3)C(=O)N1` [Example A11, 1-(3H-spiro[benzofuran-2,4'-piperidin]-6-yl)dihydropyrimidine-2,4(1H,3H)-dione], with 6.15 µM.
Still for that read-out and setting: then `O=C1CCN(c2ccc3c(c2)CC2(CCNCC2)O3)C(=O)N1` [Example A12, 1-(3H-spiro[benzofuran-2,4'-piperidin]-5-yl)dihydropyrimidine-2,4(1H,3H)-dione], with 13.3 µM; and `O=C1CCN(c2cccc3c2OCC32CCNCC2)C(=O)N1` [Example A13, 1-(2H-spiro[benzofuran-3,4'-piperidin]-7-yl)dihydropyrimidine-2,4(1H,3H)-dione], with 28.8 µM.
Take `O=C1CCN(c2ccc3c(c2)CCC2(CNC2)O3)C(=O)N1` [Example A14, 1-(spiro(azetidine-3,2'-benzodihydropyran)-6'-yl)dihydropyrimidine-2,4(1H,3H)-dione]: the IC50 was 8.36 µM.
Still for that read-out and setting: next, `O=C1CCN(c2ccc3c(c2)OCC2(CNC2)C3)C(=O)N1` [Example A15]: 9.08 µM; `O=C1CCN(c2ccc3c(c2)CC2(CNC2)CO3)C(=O)N1` [Example A16, 1-(spiro[azetidine-3,3'-chroman]-6'-yl)dihydropyrimidine-2,4(1H,3H)-dione]: 12.6 µM.
Still for that read-out and setting: next, `O=C1CCN(c2ccc3c(c2)OCC32CCNCC2(F)F)C(=O)N1` (stereo not drawn) [Example A17, 1-(3',3'-difluoro-2H-spiro[benzofuran-3,4'-piperidin]-6-yl)dihydropyrimidine-2,4(1H,3H)-dione]: 1.73 µM.
The same measure, in the same setting: next, `O=C1CCN(c2ccc3c(c2)OCCC2CNCCN32)C(=O)N1` (stereo not drawn) [Example B1, 1-(2,3,4,4a,5,6-hexahydro-1H-benzo[b]pyrazino[1,2-d][1,4]oxazepin-9-yl)dihydropyrimidine-2,4(1H,3H)-dione]: 5.84 µM.
Take `O=C1CCN(c2ccc3c(c2)OCC[C@H]2CNCCN32)C(=O)N1` [Example B2, (S)-1-(2,3,4,4a,5,6-hexahydro-1H-benzo[b]pyrazino[1,2-d][1,4]oxazepin-9-yl)dihydropyrimidine-2,4(1H,3H)-dione]: the IC50 is 6.11 µM.
On the same count and under the same terms, next, `O=C1CCN(c2ccc3c(c2)OCC[C@@H]2CNCCN32)C(=O)N1` [Example B3, (R)-1-(2,3,4,4a,5,6-hexahydro-1H-benzo[b]pyrazino[1,2-d][1,4]oxazepin-9-yl)dihydropyrimidine-2,4(1H,3H)-dione]: 5.67 µM; `O=C1CCN(c2cnc3c(c2)OCC[C@H]2CNCCN32)C(=O)N1` [Example B4, (S)-1-(7,7a,8,9,10,11-hexahydro-6H-pyrazino[1,2-d]pyrido[3,2-b][1,4]oxazepin-3-yl)dihydropyrimidine-2,4(1H,3H)-dione]: 5.49 µM; `O=C1CCN(c2cnc3c(c2)OCC[C@@H]2CNCCN32)C(=O)N1` [Example B5, (R)-1-(7,7a,8,9,10,11-hexahydro-6H-pyrazino[1,2-d]pyrido[3,2-b][1,4]oxirane-3-yl)dihydropyrimidine-2,4(1H,3H)-dione]: 10.2 µM.
Still for that read-out and setting: next, `O=C1CCN(c2ccc3c(c2)NC(=O)CC2CNCCN32)C(=O)N1` (stereo not drawn) [Example B6, 1-(6-oxo-1,2,3,4,4a,5,6,7-octahydrobenzo[b]pyrazino[1,2-d][1,4]diazepin-9-yl)dihydropyrimidine-2,4(1H,3H)-dione]: 24.3 µM.
Still for that read-out and setting: next, `CN1CC[C@H]2CNCCN2c2ccc(N3CCC(=O)NC3=O)cc21` [Example B7, (S)-1-(7-methyl-1,2,3,4,4a,5,6,7-octahydrobenzo[b]pyrazino[1,2-d][1,4]diazepin-9-yl)dihydropyrimidine-2,4(1H,3H)-dione]: 3.81 µM; `O=C1CCN(c2ccc3c(c2)COC[C@H]2CNCCN32)C(=O)N1` [Example B8, (R)-1-(1,2,3,4,4a,5-hexahydro-7H-benzo[e]pyrazino[2,1-c][1,4]oxazepin-9-yl)dihydropyrimidine-2,4(1H,3H)-dione]: 10 µM; `O=C1CCN(c2ccc3c(c2)COC[C@@H]2CNCCN32)C(=O)N1` [Example B9, (S)-1-(1,2,3,4,4a,5-hexahydro-7H-benzo[e]pyrazino[2,1-c][1,4]oxazepin-9-yl)dihydropyrimidine-2,4(1H,3H)-dione]: 8.59 µM.
Turning to `O=C1CCN(c2ccc3c(c2)NC(=O)C2CNCCN32)C(=O)N1` (stereo not drawn) [Example B10, 1-(5-oxo-2,3,4,4a,5,6-hexahydro-1H-pyrazino[1,2-a]quinoxalin-8-yl)dihydropyrimidine-2,4(1H,3H)-dione], the IC50 came to 3.34 µM.
Turning to `CN1CC2CNCCN2c2ccc(N3CCC(=O)NC3=O)cc21` (stereo not drawn) [Example B11, 1-(6-methyl-2,3,4,4a,5,6-hexahydro-1H-pyrazino[1,2-a]quinoxalin-8-yl)dihydropyrimidine-2,4(1H,3H)-dione], the IC50 was 3.76 µM.
Same read-out and setting: next, `COc1cc2c(cc1N1CCC(=O)NC1=O)OCC[C@H]1CN(C(C)=O)CCN21` [Example B12]: 2.26 µM.
